From patent US11478451B1, “Macrocyclic chlorine substituted indole derivatives” (Bayer Aktiengesellschaft, priority 2017, dated 2022)
Read-outs that look alike come from different tables or passages of the source. One block for each compound: values may come before it.

How the values were obtained:
[1] = tested on: SUDHL5 cells; assay: Induction of cytotoxicity (CellTiter-Glo, 5 h), SUDHL5; conditions: SUDHL5, 5 h
[2] = tested on: HMC-1-8 cells; assay: Antiproliferation assay (CellTiter-Glo, 72 h), HMC-1-8; format: cell-based; conditions: 72 h, IC50, median; HMC-1-8, 72 h; read-out: Antiproli HMC-1-8 [M] median
Outline: (§1)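 Cells plated in treatment plates plus a day 0 reference plate; incubated 72 h at 37 °C; CellTiter-Glo added, 10 min incubation, luminescence read; day 0 plate read at time zero.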

[3] = tested on: SUDHL10 cells; assay: Induction of caspase-3/7 activity (Caspase-Glo 3/7), SUDHL10; format: cell-based; conditions: Homo sapiens, SU-DHL10, 3 h, EC50, median; SUDHL10, 3 h treatment
Outline: (§2)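 Caspase-3/7 activation serves as the apoptosis read-out for MCL-1 inhibition. Cells are treated with compound for 3 h at 37 °C and assayed with Caspase-Glo 3/7; values are corrected by subtracting medium-only background.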

[4] = tested on: SUDHL5 cells; assay: Induction of caspase-3/7 activity (Caspase-Glo 3/7), SUDHL5; format: cell-based; conditions: EC50, median, SUDHL5, 3 h treatment
Outline: as §2

[5] = tested on: AMO-1 cells; assay: Antiproliferation assay (CellTiter-Glo, 72 h), AMO-1; format: cell-based; conditions: Homo sapiens, AMO1, 72 h, IC50, median; AMO-1, 72 h; read-out: Antiproli AMO-1 [M] median
Outline: as §1

[6] = tested on: SUDHL5 cells; assay: Antiproliferation assay (CellTiter-Glo, 72 h), SUDHL5; format: cell-based; conditions: IC50, median, SUDHL5, 72 h, read-out: Antiproli SUDHL5 [M] (median)
Outline: as §1

[7] = tested on: SUDHL10 cells; assay: Induction of cytotoxicity (CellTiter-Glo, 5 h), SUDHL10; conditions: Homo sapiens, SU-DHL10, 5 h, read-out: Cytotox SUDHL10 [M] (median), IC50, median; SUDHL10, 5 h
Method: Therefore, cytotoxicity assays were run in parallel in SUDHL5 and SUDHL10 cells.
The different cell lines were plated in culture medium (RPMI 1640 [GIBCO #22400-089] supplemented with 10% Fetal Bovine Serum) at a density of 3,300 cells in 30 μL/well in a sterile, solid black, flat bottom, polystyrene, TC-treated 384-well microplate (Corning #3571) using Multidrop Combi Reagent Dispenser. As a control, medium without cells was also added to the plate. Cells were incubated in a humidified incubator at 37° C. overnight. […] Rim wells were excluded. The cells were incubated for 5 h hours in a humidified incubator at 37° C. After this incubation, 30 μL of CellTiter-Glo® Luminescent Cell Viability reagent (Promega, G7573) was added to each well using the Multidrop Combi Reagent Dispenser, followed by 15 min incubation on a shaker at room temperature. Finally, luminescence was read at 0.1 ms, with a gain of 3000 using the PHERAstar FS microplate reader (BMG Labtech).

[8] = tested on: SNU-389 cells; assay: Antiproliferation assay (CellTiter-Glo, 72 h), SNU-389; format: cell-based; conditions: 72 h; read-out: Antiproli SNU-389 [M] median
Method: (§3) Assessment of the Anti-Proliferative Effect of Compounds in Different Cell Lines
(§4) The impact of compounds on the proliferation of different cell lines was assessed using the CellTiter-Glo® Luminescent Cell Viability reagent from Promega (G7573).
(§5) In parallel, cells were plated in a reference (day 0) plate for time zero determination.
(§6) Rim wells were excluded. The cells were incubated for 72 h hours in a humidified incubator at 37° C. The day 0 plate was measured by adding 30 μL/well of CTG solution (CellTiter-Glo® Luminescent Cell Viability reagent, Promega G7573) to time zero wells in the reference plate followed by a 10 minutes incubation and luminescence reading at 0.1 ms. using the PHERAstar FS microplate reader (BMG Labtech).
(§7) After 72 h incubation, the treated plates were measured in the same way as the day 0 plate mentioned above.

[9] = tested on: DMS-114 cells; assay: Antiproliferation assay (CellTiter-Glo, 72 h), DMS-114; format: cell-based; conditions: Homo sapiens, DMS-114, 72 h; read-out: Antiproli DMS-114 [M] median
Method: as §3, §4, §5, §6, §7

[10] = Homo sapiens, SU-DHL-5, 5 h, read-out: Cytotox SUDHL5 [M] (median), IC50, median

Compound: CCOC(=O)c1c(CCCO[Si](C)(C)C(C)(C)C)c2ccc(Cl)c3c2n1CCCCCCc1nn(C)c(CC)c1-3
ring closure, yield of all isomers (from CCOC(=O)c1[nH]c2c(-c3c(CCCCCCBr)nn(C)c3CC)c(Cl)ccc2c1CCCO[Si](C)(C)C(C)(C)C, amine bond, Cs2CO3, DMF, 71.8 mM): 99.5%

Compound: CCOC(=O)c1c(CCCOc2cccc3cc(F)ccc23)c2ccc(Cl)c3c2n1CC(F)(F)CCN(S(=O)(=O)c1ccccc1[N+](=O)[O-])Cc1nn(C)c(CC)c1-3
ring closure, yield of all isomers (from CCOC(=O)c1[nH]c2c(-c3c(CN(CCC(F)(F)COS(=O)(=O)C(F)(F)F)S(=O)(=O)c4ccccc4[N+](=O)[O-])nn(C)c3CC)c(Cl)ccc2c1CCCOc1cccc2cc(F)ccc12, amine bond, NaH, DMF, 259.0 mM): 41.3%

Compound: CCOC(=O)c1c(CCCOc2cccc3cc(F)ccc23)c2ccc(Cl)c3c2n1CC(F)(F)CCOCc1nn(C)c(C)c1-3
ring closure, yield of all isomers (from CCOC(=O)c1[nH]c2c(-c3c(COCCC(F)(F)CO)nn(C)c3C)c(Cl)ccc2c1CCCOc1cccc2cc(F)ccc12, amine bond, triphenylphosphine / di-tert-butyl azodicarboxylate, THF, 32.0 h): 46.9%

Compound: CCOC(=O)c1c(CCCOc2cccc3cc(F)ccc23)c2ccc(Cl)c3c2n1CC(F)(F)CCOCc1nn(C)c(CC)c1-3
ring closure, yield of all isomers (from CCOC(=O)c1[nH]c2c(-c3c(COCCC(F)(F)CO)nn(C)c3CC)c(Cl)ccc2c1CCCOc1cccc2cc(F)ccc12, amine bond, PPh3/di-tert-butyl azodicarboxylate (Mitsunobu), THF, 23.5 mM): 81.9%

Compound: CCOC(=O)c1c(CCCOc2cccc3cc(F)ccc23)c2ccc(Cl)c3c2n1CCC(F)(F)COCc1nn(C)c(CC)c1-3
ring closure, yield of all isomers (from CCOC(=O)c1[nH]c2c(-c3c(COCC(F)(F)CCO)nn(C)c3CC)c(Cl)ccc2c1CCCOc1cccc2cc(F)ccc12, amine bond, triphenylphosphine / di-tert-butyl azodicarboxylate, THF): 72.9%

Compound: CCOC(=O)c1c(CCCOc2cccc3cc(F)ccc23)c2ccc(Cl)c3c2n1CCC1(CC1)COCc1nn(C)c(CC)c1-3
ring closure, yield of all isomers (from CCOC(=O)c1[nH]c2c(-c3c(COCC4(CCO)CC4)nn(C)c3CC)c(Cl)ccc2c1CCCOc1cccc2cc(F)ccc12, amine bond, PPh3/di-tert-butyl azodicarboxylate (Mitsunobu), THF, 83.2 mM): 86.6%

Compound: CCOC(=O)c1c(CCCOc2cccc3cc(F)ccc23)c2ccc(Cl)c3c2n1CCCCN(C)Cc1nn(C)c(CC)c1-3
ring closure, yield of all isomers (from CCOC(=O)c1c(CCCOc2cccc3cc(F)ccc23)c2ccc(Cl)c(-c3c(CBr)nn(C)c3CC)c2n1CCCCNC, amine bond, cesium carbonate, DMF, 214.0 mM, 60.0 °C): 22%

Compound: CCOC(=O)c1c(CCCOc2cccc3cc(F)ccc23)c2ccc(Cl)c3c2n1CCCCNCc1nn(C)c(C)c1-3
ring closure, yield of all isomers (from CCOC(=O)c1c(CCCOc2cccc3cc(F)ccc23)c2ccc(Cl)c(-c3c(CBr)nn(C)c3C)c2n1CCCCN, amine bond, Cs2CO3, DMF, 205.0 mM, 60.0 °C): 6.6%

Compound: CCOC(=O)c1c(CCCOc2cccc3cc(F)ccc23)c2ccc(Cl)c3c2n1CCN(S(=O)(=O)c1ccccc1[N+](=O)[O-])CCCc1nn(C)c(CC)c1-3
ring closure, yield of all isomers (from CCOC(=O)c1[nH]c2c(-c3c(CCCN(CCOS(C)(=O)=O)S(=O)(=O)c4ccccc4[N+](=O)[O-])nn(C)c3CC)c(Cl)ccc2c1CCCOc1cccc2cc(F)ccc12, amine bond, NaH, DMF, 56.65 mM, 40.0 °C): 70.4%

Compound: CCOC(=O)c1c(CCCOc2cccc3ccccc23)c2ccc(Cl)c3c2n1CC(F)(F)C(F)(F)COCc1nn(C)c(C)c1-3
ring closure, yield of all isomers (from CCOC(=O)c1[nH]c2c(-c3c(COCC(F)(F)C(F)(F)COS(C)(=O)=O)nn(C)c3C)c(Cl)ccc2c1CCCOc1cccc2ccccc12, amine bond, Cs2CO3, DMF, 2.12 mM): 7.6%

Compound: CCOC(=O)c1c(CCCOc2cccc3ccccc23)c2ccc(Cl)c3c2n1CCC1(CC1)COCc1nn(C)c(CC)c1-3
ring closure, yield of all isomers (from CCOC(=O)c1[nH]c2c(-c3c(COCC4(CCO)CC4)nn(C)c3CC)c(Cl)ccc2c1CCCOc1cccc2ccccc12, amine bond, triphenylphosphine / diisopropyl azodicarboxylate, THF, 98.3 mM): 87.9%

Compound: CCOC(=O)c1c(CCCOc2cccc3ccccc23)c2ccc(Cl)c3c2n1C[C@@H]1CC[C@@H]1COCc1nn(C)c(C)c1-3
ring closure, yield of all isomers (from CCOC(=O)c1[nH]c2c(-c3c(COC[C@H]4CC[C@H]4CO)nn(C)c3C)c(Cl)ccc2c1CCCOc1cccc2ccccc12, amine bond, PPh3/di-tert-butyl azodicarboxylate, THF, 14.5 mM): 34.5%

EC50 [3]: 1800 nM | EC50 ([4]; Homo sapiens, SU-DHL-5, 3 h): 950 nM | IC50 ([6]; Homo sapiens, SU-DHL-5, 72 h): 4.4e-06 M
Compound: CCc1c2c(nn1C)CCCOCCn1c(C(=O)O)c(CCCOc3cccc4cc(F)ccc34)c3ccc(Cl)c-2c31 (racemic) [Example 124, (rac)-4-chloro-3-ethyl-7-{3-[(6-fluoro-1-naphthyl)oxy]propyl}-2-methyl-2,10,11,13,14,15-hexahydropyrazolo[4′,3′:7,8][1,4]oxazacycloundecino[6,5,4-hi]indole-8-carboxylic acid]
ring closure, yield of all isomers (from CCOC(=O)c1[nH]c2c(-c3c(CCCOCCO)nn(C)c3CC)c(Cl)ccc2c1CCCOc1cccc2cc(F)ccc12, amine bond, NaH, DMF, 47.5 mM, 40.0 °C, 3 steps): 63.1% | IC50 [1, 10]: 1.1e-06 M | IC50 [2]: 7e-06 M | IC50 [5]: 8.3e-07 M | IC50 [7]: 2.4e-06 M

Compound: CCOC(=O)c1c(CCCOc2cccc3cc(F)ccc23)c2ccc(Cl)c3c2n1C[C@@H]1C[C@@H]1COCc1nn(C)c(CC)c1-3 (single isomer, unassigned)
ring closure, yield of all isomers (from CCOC(=O)c1[nH]c2c(-c3c(COC[C@H]4C[C@H]4CO)nn(C)c3CC)c(Cl)ccc2c1CCCOc1cccc2cc(F)ccc12, amine bond, PPh3/di-tert-butyl azodicarboxylate (Mitsunobu), THF, 24.7 mM): 84.6%

IC50 [8]: 3.79e-06 M | EC50 [3]: 1000 nM | EC50 [4]: 350 nM | IC50 [6]: 1.1e-06 M
Compound: Cc1c2c(nn1C)CN(CC(F)(F)F)CCCCn1c(C(=O)O)c(CCCOc3cccc4cc(F)ccc34)c3ccc(Cl)c-2c31 (single isomer, unassigned; enantiomer 1) [Example 59, 4-chloro-7-{3-[(6-fluoronaphthalen-1-yl)oxy]propyl}-2,3-dimethyl-14-(2,2,2-trifluoroethyl)-10,11,12,13,14,15-hexahydro-2H-pyrazolo[3′,4′:8,9][1,6]diazacycloundecino[10,11,1-hi]indole-8-carboxylic acid—Enantiomer 1]
IC50 ([1]; read-out: Cytotox SUDHL5 [M] (median), IC50, median): 8e-07 M | IC50 [9]: 3.21e-06 M | IC50 [5]: 1.5e-06 M | IC50 [7]: 1.2e-06 M

EC50 [3]: 4600 nM | EC50 ([4]; Homo sapiens, SU-DHL-5, 3 h): 1400 nM | IC50 ([6]; Homo sapiens, SU-DHL-5, 72 h): 7.9e-06 M
Compound: CCc1nn(C)c2c1-c1c(Cl)ccc3c(CCCOc4cccc5cc(F)ccc45)c(C(=O)O)n(c13)CCOCCC2 [Example 125, (rac)-4-chloro-3-ethyl-7-{3-[(6-fluoro-1-naphthyl)oxy]propyl}-1-methyl-1,10,11,13,14,15-hexahydropyrazolo[4′,3′:7,8][1,4]oxazacycloundecino[6,5,4-hi]indole-8-carboxylic acid]
ring closure, yield of all isomers (from CCOC(=O)c1[nH]c2c(-c3c(CC)nn(C)c3CCCOCCO)c(Cl)ccc2c1CCCOc1cccc2cc(F)ccc12, amine bond, NaH, DMF, 55.64 mM, 40.0 °C, 3 steps): 76.1% | IC50 [1, 10]: 1.3e-06 M | IC50 [5]: 1.9e-06 M | IC50 [7]: 5.4e-06 M

EC50 [3]: 240 nM | EC50 ([4]; Homo sapiens, SU-DHL-5, 3 h): 130 nM | IC50 ([6]; Homo sapiens, SU-DHL-5, 72 h): 2.3e-07 M
Compound: CCc1c2c(nn1C)CN(C(=O)OCCOC)CCCCn1c(C(=O)O)c(CCCOc3cccc4cc(F)ccc34)c3ccc(Cl)c-2c31 [Example 134, (rac)-4-chloro-3-ethyl-7-{3-[(6-fluoronaphthalen-1-yl)oxy]propyl}-14-[(2-methoxyethoxy)carbonyl]-2-methyl-10,11,12,13,14,15-hexahydro-2H-pyrazolo[3′,4′:8,9][1,6]diazacycloundecino[10,11,1-hi]indole-8-carboxylic acid]
IC50 [1, 10]: 1.8e-07 M | IC50 [2]: 2.1e-06 M | IC50 [5]: 3.4e-07 M | IC50 [7]: 3.4e-07 M

EC50 [3]: 380 nM | EC50 ([4]; Homo sapiens, SU-DHL-5, 3 h): 280 nM | IC50 ([6]; Homo sapiens, SU-DHL-5, 72 h): 3.5e-07 M
Compound: CCc1c2c(nn1C)CN(C(=O)OCCC1CCOCC1)CCCCn1c(C(=O)O)c(CCCOc3cccc4cc(F)ccc34)c3ccc(Cl)c-2c31 [Example 138, (rac)-4-chloro-3-ethyl-7-{3-[(6-fluoronaphthalen-1-yl)oxy]propyl}-2-methyl-14-{[2-(oxan-4-yl)ethoxy]carbonyl}-10,11,12,13,14,15-hexahydro-2H-pyrazolo[3′,4′:8,9][1,6]diazacycloundecino[10,11,1-hi]indole-8-carboxylic acid]
IC50 [1, 10]: 2.4e-07 M | IC50 [2]: 3e-06 M | IC50 [5]: 4.7e-07 M | IC50 [7]: 6e-07 M
